According to patent publication US20210290765A1, “SURFACTANTS FOR HEALTHCARE PRODUCTS” (AdvanSix Resins & Chemicals LLC, priority 2020, published 2021):

How the values were obtained:
Format in all cases: physicochemical
[1] = Wetting properties: contact angle on solid substrates, optical contact angle goniometer; conditions: 10x CMC
Text: Surface-active compounds may also be assessed by their wetting ability on solid substrates as measured by the contact angle. When a liquid droplet comes in contact with a solid surface in a third medium, such as air, a three-phase line forms among the liquid, the gas and the solid. The angle between the surface tension unit vector, acting at the three-phase line and tangent at the liquid droplet, and the surface is described as the contact angle. The contact angle (also known as wetting angle) is a measure of the wettability of a solid by a liquid. In the case of complete wetting, the liquid is completely spread over the solid and the contact angle is 0°. Wetting properties are typically measured for a given compound at the concentration of 1-100×CMC, however, it is not a property that is concentration-dependent therefore measurements of wetting properties can be measured at concentrations that are higher or lower.
In one method, an optical contact angle goniometer may be used to measure the contact angle. This device uses a digital camera and software to extract the contact angle by analyze the contour shape of a sessile droplet of liquid on a surface.
(§1) Nuclear magnetic resonance (NMR) spectroscopy was performed on a Bruker 500 MHz spectrometer. The critical micelle concentration (CMC) was determined by the Wilhelmy plate method at 23° C. with a tensiometer (DCAT 11, DataPhysics Instruments GmbH) equipped with a Pt—Ir plate. Dynamic surface tension was determined with a bubble pressure tensiometer (Krüss BP100, Krüss GmbH), at 23° C. Contact angle was determined with the optical contact angle goniometer (OCA 15 Pro, DataPhysics GmbH) equipped with a digital camera.

[2] = Critical micelle concentration (CMC) and surface tension versus concentration in water, Wilhelmy plate method; conditions: for plateau value of minimum surface tension that can be reached / surface tension at the CMC (from the plot) / critical micelle concentration (CMC): 23° C.; for plateau value of minimum surface tension that can be reached / surface tension at the CMC (from the plot): pH=7; for critical micelle concentration (CMC): pH=7, Wilhelmy plate
Text: These properties may be measured and described by various methods. One method by which surfactants may be described is by the molecule's critical micelle concentration (CMC). CMC may be defined as the concentration of a surfactant at which micelles form, and above which all additional surfactant is incorporated into micelles.
As surfactant concentration increases, surface tension decreases. Once the surface is completely overlaid with surfactant molecules, micelles begin to form. This point represents the CMC, as well as the minimum surface tension. Further addition of surfactant will not further affect the surface tension. CMC may therefore be measured by observing the change in surface tension as a function of surfactant concentration. One such method for measuring this value is the Wilhemy plate method. A Wilhelmy plate is usually a thin iridium-platinum plate attached to a balance by a wire and placed perpendicularly to the air-liquid interface. The balance is used to measure the force exerted on the plate by wetting. This value is then used to calculate the surface tension (γ) according to Equation 1: […]
wherein I is equal to the wetted perimeter (2w+2d, in which w and d are the plate thickness and width, respectively) and cos θ, the contact angle between the liquid and the plate, is assumed to be 0 in the absence of an extant literature value.
as §1

[3] = Dynamic surface tension, bubble pressure tensiometer
Text: Another parameter used to assess the performance of surfactants is dynamic surface tension. The dynamic surface tension is the value of the surface tension for a particular surface or interface age. In the case of liquids with added surfactants, this can differ from the equilibrium value. Immediately after a surface is produced, the surface tension is equal to that of the pure liquid. As described above, surfactants reduce surface tension; therefore, the surface tension drops until an equilibrium value is reached. The time required for equilibrium to be reached depends on the diffusion rate and the adsorption rate of the surfactant.
One method by which dynamic surface tension is measured relies upon a bubble pressure tensiometer. This device measures the maximum internal pressure of a gas bubble that is formed in a liquid by means of a capillary. The measured value corresponds to the surface tension at a certain surface age, the time from the start of the bubble formation to the occurrence of the pressure maximum. The dependence of surface tension on surface age can be measured by varying the speed at which bubbles are produced.
as §1

[4] = substrate Polyethylene terephthalate
[5] = surface age 1 ms, air-water interface, 23° C.

SMILES	CA of Surfactant (contact angle) ([1]; substrate Nylon) [°]	CA of Surfactant (contact angle) [1, 4] [°]	CA of Surfactant (contact angle) ([1]; substrate Polyethylene-HD) [°]	CA of Surfactant (contact angle) ([1]; substrate Teflon) [°]	plateau value of minimum surface tension that can be reached [2]	surface tension at the CMC (from the plot) [2]	critical micelle concentration (CMC) [2]	dynamic surface tension [3, 5]	time in which the compound fully saturated the surface ([3]; air-water interface, 23° C.)	other results
CCCCCCCCCCCCOC(=O)CCCCC[N+](C)(C)C.[I-] [Surfactant 1, 6-(dodecyloxy)-N,N,N-trimethyl-6-oxohexan-1-aminium iodide]	31.5	38.4	32	67.1	about 33 mN/m	about 34 mN/m	about 1 mmol	about 55.5 mN/m	–	surface tension ([2]; at a concentration of 1.0 mmol or greater): about 33.8 mN/m; dynamic surface tension ([3]; surface age 75 ms, air-water interface, 23° C.): about 39.9 mN/m; dynamic surface tension ([3]; surface age 50,410 ms, air-water interface, 23° C.): about 34 mN/m
CCCCCCCCCCCCOC(=O)CCCCC[N+](C)(C)[O-] [Surfactant 2, dodecyl 6-(dimethylamino)hexanoate N-oxide]	21.7	24.5	39.3	57.4	about 28 mN/m	≤ 30 mN/m	about 0.08 mmol	–	approximately 7.6 seconds	surface tension ([2]; at a concentration of 0.08 mmol or greater): ≤ 30 mN/m; dynamic surface tension ([3]; surface age of 4900 ms or greater): ≤ 40 mN/m
CCCCCCCCCCCCOC(=O)CCCCCN(C)C.Cl [Surfactant 3, 6-(dodecyloxy)-N,N-dimethyl-6-oxohexan-1-aminium chloride]	15	18.3	42.5	66.6	about 30 mN/m	≤ 30 mN/m	about 1.4 mmol	about 50 mN/m	–	surface tension ([2]; at a concentration of 2.7 mmol or greater): ≤ 33 mN/m; dynamic surface tension ([3]; surface age 100 ms, air-water interface, 23° C.): about 40 mN/m; dynamic surface tension ([3]; surface age 50,000 ms, air-water interface, 23° C.): about 34 mN/m
CCCCCCCCCCCCOC(=O)CCCCC[N+](C)(C)CCCCS(=O)(=O)[O-] [Surfactant 4, 4-((6-(dodecyloxy)-6-oxohexyl)dimethylammonio)butane-1-sulfonate]	25.7	35.6	46.5	62.7	about 38 mN/m	about 38 mN/m	about 0.1 mmol	–	approximately 1 seconds	surface tension ([2]; at a concentration of 1 mmol or greater): ≤ 37 mN/m; dynamic surface tension ([3]; surface age of 4000 ms or greater): ≤ 40.5 mN/m
CCCCCCCCCCCCOC(=O)CCCCCN.Cl [Surfactant 5, 6-(dodecyloxy)-6-oxohexan-1-aminium chloride]	18.2	15.3	16.6	39.3	about 23 mN/m	about 23 mN/m	about 0.75 mmol	–	approximately 1.5 seconds	surface tension ([2]; at a concentration of 0.7 mmol or greater): ≤ 23.2 mN/m; dynamic surface tension ([3]; surface age of 3185 ms or greater): ≤ 28.5 mN/m
